According to EP4137133A1, “CRYSTALLINE FORM OF AVACOPAN” (Sandoz AG, priority 2021, dated 2023):
One block for each compound: values may come before it.

Key:
[1] = Powder dissolution of crystalline avacopan forms in 0.1N HCl; format: physicochemical; settings: 37°C; for Concentration: HPLC 243 nm
Description: Powder dissolution experiments were carried out in 0.1N HCl at 37°C for the crystalline form of avacopan disclosed in WO 2021/092292 A1 and the crystalline Form HyA of avacopan of the present invention. Particle sizes of the forms were kept as similar as possible to allow for proper comparison. The respective concentrations were determined by HPLC at a wavelength of 243 nm.

[2] = Gravimetric moisture sorption (GMS); format: physicochemical; settings: 25 ± 0.1 °C
Description: Moisture sorption isotherms were recorded with an SPSx-1µ moisture sorption analyzer (ProUmid, Ulm) together with other samples. The measurement cycle was started at ambient relative humidity (RH) of 40%. RH was then decreased to 5% in 5% steps, followed by a further decrease to 3% and to 0%. […] Finally, RH was increased to ambient relative humidity of […] in 5% steps. The time per step was set to a minimum of 2 hours and a maximum of 6 hours. If an equilibrium condition with a constant mass of ± 0.01% within 1 hour was reached before the maximum time for all examined samples the sequential humidity step was applied before the maximum time of 6 hours. If no equilibrium was achieved the consecutive humidity step was applied after the maximum time of 6 hours. The temperature was 25 ± 0.1 °C.

Concentration ([1]; time 0.25 h): 4 µg/mL
Concentration ([1]; time 0.5 h): 6 µg/mL
Concentration ([1]; time 0.75 h): 6 µg/mL
Concentration ([1]; time 1 h): 7 µg/mL
Concentration ([1]; time 1.25 h): 7 µg/mL
Concentration ([1]; time 1.5 h): 8 µg/mL
Concentration ([1]; time 1.75 h): 8 µg/mL
Concentration ([1]; time 2 h): 8 µg/mL
Structure (SMILES): Cc1ccc(NC(=O)[C@H]2CCCN(C(=O)c3c(C)cccc3F)[C@H]2c2ccc(NC3CCCC3)cc2)cc1C(F)(F)F [Crystalline Form of WO 2021/092292 A1, (2R,3S)-2-(4-(cyclopentylamino)phenyl)-1-(2-fluoro-6-methylbenzoyl)-N-(4-methyl-3-(trifluoromethyl)phenyl)piperidine-3-carboxamide, reference compound]

mass change (0-15% RH) ([2]; GMS, 0-15% RH): 2.2 w-%
mass change (0-90%RH) ([2]; GMS, 0-90% RH): 3.2 w-%
mass change (15-90%) ([2]; GMS, 15-90% RH): 1.0 w-%
hygroscopicity ([2]; GMS, range of 15-90% RH): slightly hygroscopic
mass change ([2]; GMS, range of 15-90% RH): 1.0%
water released ([2]; GMS, very dry conditions, below 15-0% RH): 2.2%
PXRD after the GMS experiment (physical stability) ([2]; after sorption/desorption cycles 0-90% RH): still shows the same PXRD
Concentration ([1]; time 0 h): 0 µg/mL
Concentration ([1]; time 0.25 h, listed as Form HyA of present invention): 72 µg/mL
Concentration ([1]; time 0.5 h, listed as Form HyA of present invention): 68 µg/mL
Concentration ([1]; time 0.75 h, listed as Form HyA of present invention): 60 µg/mL
Concentration ([1]; time 1 h, listed as Form HyA of present invention): 52 µg/mL
Concentration ([1]; time 1.25 h, listed as Form HyA of present invention): 43 µg/mL
Concentration ([1]; time 1.5 h, listed as Form HyA of present invention): 40 µg/mL
Concentration ([1]; time 1.75 h, listed as Form HyA of present invention): 36 µg/mL
Concentration ([1]; time 2 h, listed as Form HyA of present invention): 35 µg/mL
solubility in 0.1N HCl compared to the crystalline form of avacopan disclosed in WO 2021/092292 A1 ([1]; whole range from 15 minutes to 2 hours): significantly increased solubility
Structure (SMILES): Cc1ccc(NC(=O)[C@H]2CCCN(C(=O)c3c(C)cccc3F)[C@H]2c2ccc(NC3CCCC3)cc2)cc1C(F)(F)F [Form HyA, (2R,3S)-2-(4-(cyclopentylamino)phenyl)-1-(2-fluoro-6-methylbenzoyl)-N-(4-methyl-3-(trifluoromethyl)phenyl)piperidine-3-carboxamide]
